In paper PMC8918029 (Journal of medicinal chemistry, 2021):
Entries after “also recorded” stand apart in the source; their conditions may differ.

Assays:
[1] = target: γ-secretase (Homo sapiens, UniProt P49768); experiment: Cross-competition kinetic experiments between two inhibitors; format: biochemical; conditions: [38] = 0, 0.15, 0.30, 0.60 nM; C100 0.50 μM; parallel lines indicate cross-competition
[2] = target: purified γ-secretase (Homo sapiens, UniProt P49768); experiment: Inhibition constant; format: biochemical; conditions: double-reciprocal plots, varying C100Flag

## CC[C@@H](C)[C@@H](NC(=O)[C@H](NC(=O)[C@H](NC(=O)C(C)(C)NC(=O)CNC(=O)[C@H](NC(=O)OC(C)(C)C)C(C)C)C(C)C)C(C)C)C(=O)NC(C)(C)C(=O)N[C@@H](C(=O)N[C@@H](C(=O)NC(C)(C)C(=O)NCCCCCCCCCCC(=O)N[C@H](C(=O)N[C@@H](Cc1ccccc1)[C@H](O)CN(Cc1ccccc1)C(=O)N[C@@H](CC(C)C)C(=O)N[C@H](C(N)=O)C(C)C)C(C)C)C(C)C)[C@H](C)O [Compound 38, Boc-^DVal-Gly-Aib-^DVal-^DVal-^DIle-Aib-^DThr- ^DVal-Aib-NH(CH2)10CO-Val-Phe-ψ-Phe-Leu-Val-NH2]
[1]
  Cross-competition with TSA 1 and HPI 2 for binding: could compete with both TSA 1 and HPI 2; also recorded: competes with both TSA 1 and HPI 2
[2]
  Inhibition profile (mode of inhibition): noncompetitive; also recorded: non-competitive inhibition
